In the first assay the target is T1, FSHR (Homo sapiens, UniProt P23945).
T1 construct: expressed in transfected cells; host or cells: CHO (Cho-FSHR-LUC-1-1-43)
T1 sequence (P23945 18-695): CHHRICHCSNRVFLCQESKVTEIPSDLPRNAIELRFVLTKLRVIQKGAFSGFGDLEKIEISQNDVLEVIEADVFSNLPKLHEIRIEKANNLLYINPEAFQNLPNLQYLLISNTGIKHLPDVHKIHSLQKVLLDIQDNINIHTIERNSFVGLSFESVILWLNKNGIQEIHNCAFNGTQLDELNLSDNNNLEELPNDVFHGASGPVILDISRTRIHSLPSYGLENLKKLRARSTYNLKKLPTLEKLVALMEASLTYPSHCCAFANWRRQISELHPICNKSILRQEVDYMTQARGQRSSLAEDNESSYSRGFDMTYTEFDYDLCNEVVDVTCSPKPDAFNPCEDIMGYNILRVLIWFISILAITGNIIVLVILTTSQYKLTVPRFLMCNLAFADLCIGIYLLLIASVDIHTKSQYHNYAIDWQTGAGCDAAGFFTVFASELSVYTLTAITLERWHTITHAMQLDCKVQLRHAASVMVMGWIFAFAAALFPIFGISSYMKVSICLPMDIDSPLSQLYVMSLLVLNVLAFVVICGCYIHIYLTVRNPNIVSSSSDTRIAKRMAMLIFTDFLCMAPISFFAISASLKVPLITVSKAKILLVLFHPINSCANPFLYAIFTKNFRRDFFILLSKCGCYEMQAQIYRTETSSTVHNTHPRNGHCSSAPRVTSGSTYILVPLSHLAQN
T1 sequence (P01215 25-116 partner): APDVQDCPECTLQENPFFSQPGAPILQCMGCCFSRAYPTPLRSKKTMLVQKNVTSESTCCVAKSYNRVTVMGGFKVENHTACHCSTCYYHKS
T1 sequence (P01225 19-129 partner): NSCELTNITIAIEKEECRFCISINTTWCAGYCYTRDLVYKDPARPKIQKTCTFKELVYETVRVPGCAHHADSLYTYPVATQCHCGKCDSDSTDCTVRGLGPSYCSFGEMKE
Briefly: EC50 of cyclic AMP production in CHO FSHR cells + EC20 FSH (Assay A). Type of assay: cell-based. The conditions noted are these: 1 h; 5 μM; effect relative to maximum response of the FSH standard; Table 1. The procedure, abridged: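 cAMP HTRF ratio (665/620 nm) read after 1 h, 37 °C exposure of CHO-FSHR cells to compound in presence of EC20 FSH ([…]) and IBMX 200 μM. Responses given relative to FSH standard maximum; EC50 derived.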
In the case of `Cc1ccccc1N1CCN(c2ccc(C(=O)NCCCN3CCCC3=O)cc2NS(=O)(=O)c2cccc3ncccc23)CC1` [Compound 229], the activation at 5 µM was 41%. `Cc1ccccc1N1CCN(c2ccc(C(=O)NCCCN3CCCC3=O)cc2NS(=O)(=O)Cc2cccc3cccnc23)CC1` [Compound 239]: the activation at 5 µM was 43%. Consider `Cc1ccc(N2CCN(c3ccc(C(=O)NCCCN4CCCC4=O)cc3NC(=O)c3coc(C4CC4)n3)CC2)cc1` [Compound 245], for which the activation at 5 µM is 12%. On to `Cc1ccc(N2CCN(c3ccc(C(=O)NCCCN4CCCC4=O)cc3NC(=O)c3coc(C4CC4)n3)CC2)cc1C` [Compound 252], for which the activation at 5 µM is 14%.

With `Cc1ccc(C(=O)Nc2cc(C(=O)NCCCN3CCCC3=O)ccc2N2CCN(Cc3ccccc3C)[C@@H](C)C2)o1` [Compound 253], the activation at 5 µM is 24%. Same read-out and setting: in the case of `Cc1ccc(C(=O)Nc2cc(C(=O)NCCCN3CCCC3=O)ccc2N2CCN(Cc3ccccc3C(F)(F)F)[C@@H](C)C2)o1` [Compound 254] it was 20%. Same read-out and setting: with `Cc1ccc(C(=O)Nc2cc(C(=O)NCCCN3CCCC3=O)ccc2N2CCN(Cc3ccccc3Cl)[C@@H](C)C2)o1` [Compound 255] the figure was 22%; with `Cc1ccccc1CN1CCN(c2ccc(C(=O)NCCCN3CCCC3=O)cc2NC(=O)c2coc(C3CC3)n2)C[C@@H]1C` [Compound 256], 26%. The same measure, in the same setting: in the case of `C[C@H]1CN(c2ccc(C(=O)NCCCN3CCCC3=O)cc2NC(=O)c2coc(C3CC3)n2)CCN1Cc1ccccc1C(F)(F)F` [Compound 257] it was 21%.

The assay is the same for the next values; noted with them: CHO FSHR cells + EC20 FSH; Table 1; read-out: Assay A EC50 of cyclic AMP production.
`Cc1ccccc1N1CCN(c2ccc(C(=O)NCCCN3CCCC3=O)cc2NC(=O)c2cnc(Cl)s2)CC1` [Compound 197]: the EC50 is 1000 to 10000 nM.

Take `Cc1ncc(C(=O)Nc2cc(C(=O)NCCCN3CCCC3=O)ccc2N2CCN(c3ccccc3C)CC2)s1` [Compound 198]: the EC50 was 100 to 1000 nM.

Regarding `CCc1ncc(C(=O)Nc2cc(C(=O)NCCCN3CCCC3=O)ccc2N2CCN(c3ccccc3C)CC2)s1` [Compound 200], the EC50 lay within 1000 to 10000 nM. Same read-out and setting: with `Cc1ccccc1N1CCN(c2ccc(C(=O)NCCCN3CCCC3=O)cc2NC(=O)c2sc(Cl)nc2C)CC1` [Compound 201] the figure was greater than 10000 nM; with `Cc1ccccc1N1CCN(c2ccc(C(=O)NCCCN3CCCC3=O)cc2NC(=O)c2nc3ccccc3s2)CC1` [Compound 202], 1000 to 10000 nM. Take `Cc1cnc(C(=O)Nc2cc(C(=O)NCCCN3CCCC3=O)ccc2N2CCN(c3ccccc3C)CC2)s1` [Compound 205]: the EC50 lay in the range of 100 to 1000 nM. On the same count and under the same terms, in the case of `Cc1ccccc1N1CCN(c2ccc(C(=O)NCCCN3CCCC3=O)cc2NC(=O)c2coc(C(C)C)n2)CC1` [Compound 208] it was 1000 to 10000 nM; in that of `Cc1ccc(C(=O)Nc2cc(C(=O)NCCCn3ccnc3)ccc2N2CCN(c3ccccc3C)CC2)o1` [Compound 210, 5-Methyl-furan-2-carboxylic acid [5-(3-imidazol-1-yl-propylcarbamoyl)-2-(4-o-tolyl-piperazin-1-yl)-phenyl]-amide], 1000 to 10000 nM. For the compound `C=CC(=O)NCCCNC(=O)c1ccc(N2CCN(c3ccccc3C)CC2)c(NC(=O)c2ccco2)c1` [Compound 212], the EC50 fell in the range of 100 to 1000 nM.

Consider `Cc1ccccc1N1CCN(c2ccc(C(=O)NCCCN3CCCC3=O)cc2NC(=O)c2csc(C(C)C)c2)CC1` [Compound 213], for which the EC50 was greater than 10000 nM.

As for `Cc1ccc(C(=O)Nc2cc(C(=O)NCCN3CCN(C(=O)OC(C)(C)C)CC3)ccc2N2CCN(c3ccccc3C)CC2)o1` [Compound 214], the EC50 is 1000 to 10000 nM. Same read-out and setting: in the case of `Cc1ccccc1N1CCN(c2ccc(C(=O)NCCCN3CCCC3=O)cc2NC(=O)c2ccc(C(N)=O)o2)CC1` [Compound 216, Furan-2,5-dicarboxylic acid 2-amide 5-{[5-[3-(2-oxo-pyrrolidin-1-yl)-propylcarbamoyl]-2-(4-o-tolyl-piperazin-1-yl)-phenyl]-amide}] it was greater than 10000 nM. In the case of `Cc1ccc(C(=O)Nc2cc(C(=O)NCc3cccnc3)ccc2N2CCN(c3ccccc3C)CC2)o1` [Compound 218, 5-Methyl-furan-2-carboxylic acid [5-[(pyridin-3-ylmethyl)-carbamoyl]-2-(4-o-tolyl-piperazin-1-yl)-phenyl]-amide], the EC50 is 100 to 1000 nM. Consider `Cc1ccccc1N1CCN(c2ccc(C(=O)NCCCN3CCCC3=O)cc2NC(=O)CC2CC2)CC1` [Compound 219, 3-(2-Cyclopropyl-acetylamino)-N-[3-(2-oxo-pyrrolidin-1-yl)-propyl]-4-(4-o-tolyl-piperazin-1-yl)-benzamide], for which the EC50 was 1000 to 10000 nM. As to `CCCc1cc(C(=O)Nc2cc(C(=O)NCCCN3CCCC3=O)ccc2N2CCN(c3ccccc3C)CC2)co1` [Compound 220], the EC50 lay within 1000 to 10000 nM. As to `COc1ccc(C(=O)Nc2cc(C(=O)NCCCN3CCCC3=O)ccc2N2CCN(c3ccccc3C)CC2)nc1` [Compound 221], the EC50 is 100 to 1000 nM.

Turning to `Cc1ccccc1N1CCN(c2ccc(C(=O)N[C@H]3O[C@@H](CO)[C@H](O)[C@@H]3O)cc2NC(=O)c2ccco2)CC1` [Compound 222], the EC50 was in the range of 100 to 1000 nM. For `C=CC(=O)NCCNC(=O)c1ccc(N2CCN(c3ccccc3C)CC2)c(NC(=O)c2ccco2)c1` [Compound 225], the EC50 lay within 100 to 1000 nM. With `Cc1ccccc1N1CCN(c2ccc(C(=O)NCCC3C[C@H]4CC[C@@H]3C4)cc2NC(=O)c2coc(C3CC3)n2)CC1` (stereo partly drawn) [Compound 231], the EC50 lay within 100 to 1000 nM. Still for that read-out and setting: with `Cc1ccccc1N1CCN(c2ccc(C(=O)NCCCc3cn[nH]c3)cc2NC(=O)c2coc(C3CC3)n2)CC1` [Compound 232] the figure was 100 to 1000 nM; with `Cc1ccccc1N1CCN(c2ccc(C(=O)NCCC(=O)N3CCCC3)cc2NC(=O)c2coc(C3CC3)n2)CC1` [Compound 234], 1000 to 10000 nM; with `Cc1ccccc1N1CCN(c2ccc(C(=O)NCc3ccc(Cl)cc3)cc2NC(=O)c2coc(C3CC3)n2)CC1` [Compound 235], 1000 to 10000 nM.

`Cc1ccccc1N1CCN(c2ccc(C(=O)NCc3cccc(-c4c[nH]cn4)c3)cc2NC(=O)c2ccco2)CC1` [Compound 236]: the EC50 is 100 to 1000 nM.

Turning to `Cc1ccccc1N1CCN(c2ccc(C(=O)NCc3cccc(-c4ccnn4C)c3)cc2NC(=O)c2ccco2)CC1` [Compound 237], the EC50 was 100 to 1000 nM. On the same count and under the same terms, in the case of `Cc1ccccc1N1CCN(c2ccc(C(=O)NCc3ccccc3C(N)=O)cc2NC(=O)c2ccco2)CC1` [Compound 238] it was 100 to 1000 nM; in that of `Cc1ccccc1N1CCN(c2ccc(C(=O)NCc3cccc(-c4ccn(C)n4)c3)cc2NC(=O)c2ccco2)CC1` [Compound 240], 100 to 1000 nM; in that of `Cc1ccccc1N1CCN(c2ccc(C(=O)NCCCN3CCCC3=O)cc2Nc2ncccn2)CC1` [Compound 242, N-[3-(2-Oxo-pyrrolidin-1-yl)-propyl]-3-(pyrimidin-2-ylamino)-4-(4-o-tolyl-piperazin-1-yl)-benzamide], 1000 to 10000 nM.

Regarding `Cc1cccc(N2CCN(c3ccc(C(=O)NCCCN4CCCC4=O)cc3NC(=O)c3ccc(C)o3)CC2)c1` [Compound 243], the EC50 was 1000 to 10000 nM. Take `Cc1ccccc1N1CCN(c2ccc(C(=O)NCc3ccc(C(N)=O)cc3)cc2NC(=O)c2ccco2)CC1` [Compound 247]: the EC50 was less than 100 nM. For `Cc1ccccc1N1CCN(c2ccc(C(=O)NCc3cccc(-c4nnn[nH]4)c3)cc2NC(=O)c2ccco2)CC1` [Compound 248], the EC50 was less than 100 nM.
